Results as given in US5496856A, “Aspartame for its application as a therapeutically active substance” (priority 1993, dated 1996).

Columns and labels:
[1] = tested on: DNA; assay: DNA adducts by postlabeling with ATP gamma 32P in organs (genotoxicity); format: in vivo, rats; settings: OTA 289 μg/kg every 48 h, 3 weeks
Description: The animals used in this experiment are male rats of the Wistar strain weighing 160±10 g.
The aspartame is administered by gavage, at the same time as the ochratoxin A, every 48 hours for 3 weeks.
The control and treated rats are placed in a metabolic cage for 24 hours for urine sampling and then sacrificed.
The organs of the same animals were used for extraction of the DNA, which was analyzed by the technique of postlabeling with ATP gamma 32P in order to evaluate the genotoxicity by the presence of adducts with DNA bases.

[2] = tested on: human plasma proteins; assay: OTA binding to human plasma proteins, condition (ii): OTA with or without aspartame in lower compartment; format: in vitro ADME
Description: (§1) A further study was performed in order to determine the effect of aspartame on OTA binding on human plasma proteins in vitro.
(§2) An in-vitro study was performed on plasma samples obtained from healthy human volunteers, from a French blood bank (Centre de transfusion sanguine in Bordeaux), using citrate as anticoagulant. Blood samples were centrifuged at 1800 g for 30 minutes. This pooled human plasma contained 41±3 g of proteins per liter.
(§3) Static diffusion cells (polypropylene, homemade according to the model provided by Nalgene, USA) containing two compartments (upper and lower) separated by a dialysing membrane having a 10 000 D exclusion limit (Sigma Chemical, USA) were used. This membrane allows OTA and aspartame diffusion and not protein diffusion.
(§4) A human plasma sample was placed in the upper compartment and a medium (RPMI 1640, Sigma chemical, USA) in the lower one.
(§5) The plasma binding properties of OTA were evaluated under two different conditions:
(ii) The upper compartment contained human plasma proteins only and OTA (20, 100 and 500 μg/ml) was added into the lower compartment alone or concommitantly with 10 μg/ml aspartame.
(§6) OTA concentration in the upper compartment was determined by HPLC (Mobile phase: methanol, acetonitrile, acetic acid, sodium acetate 5 mM (300: 300: 400: 14 v/v/v/v); injection volume 50 μl; flow rate 1 ml/min; run time for one cycle: 10 min and fluorescence detection (excitation at 340 nm and emission at 465 nm).
(§7) Before extraction of OTA from the plasma, all the studied samples of plasma, which had already fixed OTA, were dialysed against free OTA RPMI medium for at least 15 minutes, one or several times, until no more OTA was found in the lower compartment.
(§8) The results obtained under condition (i) as defined hereinabove are reported in Table I, whereas the results obtained under condition (ii) are reported in Table II.
Under condition (ii) (Table II), the aspartame was put in the same compartment as OTA in the non-plasmatic compartment to mimic the stomach (the ration OTA/aspartame=1.5 to 36).

[3] = tested on: human plasma proteins; assay: OTA binding to human plasma proteins, condition (i): aspartame in upper (plasma) compartment; format: in vitro ADME
Description: as §1, §2, §3, §4, §5
(i) The aspartame at a concentration of 10 μg/ml was added in the upper compartment containing human plasma proteins before introducing OTA at three different concentrations (20, 100, and 500 μg/ml) in the lower compartment;
as §6, §7, §8

[4] = tested on: all animal species; settings: cited from earlier work; for toxicity: background statement
[5] = cited from earlier work; for efficacy in treatment of ochratoxicosis: doses of the order of several grams per day

C[C@@H]1Cc2c(Cl)cc(C(=O)N[C@@H](Cc3ccccc3)C(=O)O)c(O)c2C(=O)O1 [OTA, chlorodihydroisocoumarinylphenylalanine, reference compound]
DNA adducts in organs (liver, kidney, spleen, etc.), OTA-treated animals [1]: Adducts are detected in large numbers
Quantities of OTA bound to plasma proteins, OTA alone (Table II) ([2]; OTA 20 μg/ml, 30 min): 163 ± 42 ng/mL
Quantities of OTA bound to plasma proteins, OTA alone (Table II) ([2]; OTA 20 μg/ml, 60 min): 488 ± 41 ng/mL
Quantities of OTA bound to plasma proteins, OTA alone (Table II) ([2]; OTA 20 μg/ml, 120 min): 774 ± 43 ng/mL
Quantities of OTA bound to plasma proteins, OTA alone (Table II) ([2]; OTA 100 μg/ml, 30 min): 491 ± 39 ng/mL
Quantities of OTA bound to plasma proteins, OTA alone (Table II) ([2]; OTA 100 μg/ml, 60 min): 983 ± 48 ng/mL
Quantities of OTA bound to plasma proteins, OTA alone (Table II) ([2]; OTA 100 μg/ml, 120 min): 1296 ± 61 ng/mL
Quantities of OTA bound to plasma proteins, OTA alone (Table II) ([2]; OTA 500 μg/ml, 30 min): 539 ± 41 ng/mL
Quantities of OTA bound to plasma proteins, OTA alone (Table II) ([2]; OTA 500 μg/ml, 60 min): 1347 ± 92 ng/mL
Quantities of OTA bound to plasma proteins, OTA alone (Table II) ([2]; OTA 500 μg/ml, 120 min): 1899 ± 89 ng/mL
Quantities of OTA bound to plasma proteins, OTA alone (Table I) ([3]; OTA 20 μg/ml, 30 min): 215 ± 11 ng/mL
Quantities of OTA bound to plasma proteins, OTA alone (Table I) ([3]; OTA 20 μg/ml, 60 min): 431 ± 18 ng/mL
Quantities of OTA bound to plasma proteins, OTA alone (Table I) ([3]; OTA 20 μg/ml, 120 min): 772 ± 25 ng/mL
Quantities of OTA bound to plasma proteins, OTA alone (Table I) ([3]; OTA 100 μg/ml, 30 min): 442 ± 21 ng/mL
Quantities of OTA bound to plasma proteins, OTA alone (Table I) ([3]; OTA 100 μg/ml, 60 min): 739 ± 17 ng/mL
Quantities of OTA bound to plasma proteins, OTA alone (Table I) ([3]; OTA 100 μg/ml, 120 min): 1231 ± 17 ng/mL
Quantities of OTA bound to plasma proteins, OTA alone (Table I) ([3]; OTA 500 μg/ml, 30 min): 556 ± 15 ng/mL
Quantities of OTA bound to plasma proteins, OTA alone (Table I) ([3]; OTA 500 μg/ml, 60 min): 1175 ± 71 ng/mL
Quantities of OTA bound to plasma proteins, OTA alone (Table I) ([3]; OTA 500 μg/ml, 120 min): 1744 ± 112 ng/mL

C[C@@H]1Cc2c(Cl)cc(C(=O)N[C@@H](Cc3ccc(O)cc3)C(=O)O)c(O)c2C(=O)O1 [Tyrosine-OTA]
genotoxic effects ([4]; metabolite of OTA, Creppy et al., Arch. Toxicol. 64, 279-284 (1990)): seems to be one of the metabolites responsible for the genotoxic effects

C[C@@H]1Cc2ccc(C(=O)N[C@@H](Cc3ccccc3)C(=O)O)c(O)c2C(=O)O1 [ochratoxin B]
toxicity [4]: does not seem to be toxic

CCOC(=O)[C@H](Cc1ccccc1)NC(=O)c1cc(Cl)c2c(c1O)C(=O)O[C@H](C)C2 [ochratoxin C, ethyl ester of ochratoxin A]
toxicity [4]: effects comparable to those of ochratoxin A

N[C@@H](Cc1ccccc1)C(=O)O [phenylalanine]
action in chronic intoxication ([5]; chronic intoxication): very inadequate, if not non-existent
efficacy in treatment of ochratoxicosis [5]: not totally satisfactory
acute toxic effects of OTA and inhibition of protein synthesis ([5]; in vivo and in vitro): makes it possible to prevent the acute toxic effects and the inhibition of protein synthesis

O=C(O)O [sodium bicarbonate]
efficacy in treatment of ochratoxicosis [5]: still poor
